{"source": "patent US9139604B2", "about": "“Antiviral phosphonate analogs” (Gilead Sciences, Inc., priority 2003, dated 2015)", "origin": "cited, not measured here", "test_system": "HIV", "conditions": "described in the literature; kind of value (EC50/IC50) not stated", "data": [{"smiles": "Nc1nc(=O)c2ncn([C@@H]3C[C@H](CO)[C@H]3CO)c2[nH]1", "note": "[lubocavir]", "values": [{"measurement": "anti-HIV activity", "result": 30, "unit": "µM"}]}]}
